Experimental data published in ChEMBL document CHEMBL5550161, “Discovery of novel small molecules targeting the USP21/JAK2/STAT3 axis for the treatment of triple-negative breast cancer” (Eur J Med Chem, 2024).
Calls of active or inactive are those of the source. No cut-off for these calls is given here.

Key:
[1] = test system: MCF7; assay: Anti-proliferative activity against human MCF7 cells assessed as cell growth inhibition incubated for 72 hrs by MTT assay; type: functional, cell-based; conditions: MCF7, 72 h
[2] = target: Tyrosine-protein kinase JAK2 (Homo sapiens, UniProt O60674); assay: Inhibition of JAK2 (unknown origin)
Chain of Tyrosine-protein kinase JAK2 (O60674 whole entry): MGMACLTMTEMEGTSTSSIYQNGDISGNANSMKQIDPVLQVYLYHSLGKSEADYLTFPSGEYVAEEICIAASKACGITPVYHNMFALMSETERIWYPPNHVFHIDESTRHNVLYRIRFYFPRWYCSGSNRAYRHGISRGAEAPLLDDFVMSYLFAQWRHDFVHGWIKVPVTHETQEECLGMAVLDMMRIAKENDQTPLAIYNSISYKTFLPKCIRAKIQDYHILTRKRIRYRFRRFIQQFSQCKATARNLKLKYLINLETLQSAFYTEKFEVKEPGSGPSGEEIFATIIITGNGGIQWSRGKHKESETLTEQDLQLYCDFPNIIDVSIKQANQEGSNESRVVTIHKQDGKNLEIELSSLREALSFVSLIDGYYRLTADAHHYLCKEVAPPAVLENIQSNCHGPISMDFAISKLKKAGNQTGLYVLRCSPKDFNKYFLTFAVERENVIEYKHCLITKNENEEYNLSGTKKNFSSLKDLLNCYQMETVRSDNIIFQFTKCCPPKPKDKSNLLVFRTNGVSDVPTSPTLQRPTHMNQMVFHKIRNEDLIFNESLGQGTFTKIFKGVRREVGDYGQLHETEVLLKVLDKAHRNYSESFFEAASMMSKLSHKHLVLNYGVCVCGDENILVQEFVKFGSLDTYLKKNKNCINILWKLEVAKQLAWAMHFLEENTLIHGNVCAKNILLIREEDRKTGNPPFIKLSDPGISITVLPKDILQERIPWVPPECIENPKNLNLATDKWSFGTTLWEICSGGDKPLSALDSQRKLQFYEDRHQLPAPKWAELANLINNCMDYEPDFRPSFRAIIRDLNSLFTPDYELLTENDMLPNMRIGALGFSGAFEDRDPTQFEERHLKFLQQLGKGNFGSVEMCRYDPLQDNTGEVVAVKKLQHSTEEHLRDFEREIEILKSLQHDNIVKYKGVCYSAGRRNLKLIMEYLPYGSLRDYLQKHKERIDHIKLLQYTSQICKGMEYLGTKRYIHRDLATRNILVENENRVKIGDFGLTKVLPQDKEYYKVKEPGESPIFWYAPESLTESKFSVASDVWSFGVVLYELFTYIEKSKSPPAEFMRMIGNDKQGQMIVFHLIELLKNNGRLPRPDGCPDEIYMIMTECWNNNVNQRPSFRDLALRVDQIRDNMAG

[3] = test system: MDA-MB-231; assay: Anti-proliferative activity against human MDA-MB-231 cells assessed as cell growth inhibition incubated for 72 hrs by MTT assay; type: functional, cell-based; conditions: MDA-MB-231, 72 h
[4] = test system: Hs-578T; assay: Anti-proliferative activity against human Hs-578T cells assessed as cell growth inhibition incubated for 72 hrs by MTT assay; type: functional, cell-based
[5] = test system: HCC1806; assay: Anti-proliferative activity against human HCC1806 cells assessed as cell growth inhibition incubated for 72 hrs by MTT assay; type: functional, cell-based; conditions: HCC1806, 72 h
[6] = test system: HCC1806; assay: Antitumor activity against human HCC1806 cells xenografted in Balb/c mouse at 2.5 mg/kg, ip administered once a week measured after 14 days relative to control; type: functional; conditions: HCC1806, 336 h, time 14 day, read-out: TGI
[7] = test system: HCC1806; assay: Antitumor activity against human HCC1806 cells xenografted in Balb/c mouse assessed as reduction in tumor weight at 2.5 mg/kg, ip administered once a week measured after 14 days; type: functional, organism-based; conditions: time 14.0 day

Compound	IC50 [1]	IC50 [2]	IC50 [3]	IC50 [5]	IC50 [4]	inhibition in vivo at 2.5 mg/kg [6]	Activity [7]
COc1cc(Nc2ccccc2C(=O)NCCc2c[nH]c3ccccc23)cc(OC)c1OC	> 100 µM	> 10 µM	99.7 µM	2.41 µM	2.18 µM	–	–
COc1cc(Nc2cc(F)ccc2C(=O)NCCc2c[nH]c3c(Br)cccc23)cc(OC)c1OC	3.56 µM	–	2.44 µM	1.94 µM	13.1 µM	–	–
COc1ccc(Nc2cc(OC)c(OC)c(OC)c2)c(C(=O)NCCc2c[nH]c3ccccc23)c1	> 100 µM	–	82.1 µM	29.9 µM	> 100 µM	–	–
COc1cc(Nc2c(C(=O)NCCc3c[nH]c4ccccc34)ccc(F)c2F)cc(OC)c1OC	78 µM	–	85.3 µM	90 µM	> 100 µM	–	–
COc1cc2[nH]cc(CCNC(=O)c3ccc(F)cc3Nc3cc(OC)c(OC)c(OC)c3)c2cc1OC	65.8 µM	–	94 µM	91.5 µM	> 100 µM	–	–
COc1cc(Nc2cc(F)ccc2C(=O)NCCc2c[nH]c3cccc(F)c23)cc(OC)c1OC	0.97 µM	–	0.53 µM	0.47 µM	1.86 µM	–	–
COc1cc(Nc2cc(F)ccc2C(=O)NCCc2c[nH]c3cc(C)ccc23)cc(OC)c1OC	74 µM	–	11.9 µM	34.5 µM	> 100 µM	–	–
COc1ccc2c(CCNC(=O)c3ccc(F)cc3Nc3cc(OC)c(OC)c(OC)c3)c[nH]c2c1	40.4 µM	–	46.7 µM	1.75 µM	> 100 µM	–	–

Now from value to compound, other results behind:

IC50 [1]	IC50 [2]	IC50 [3]	IC50 [5]	Compound	IC50 [4]	inhibition in vivo at 2.5 mg/kg [6]	Activity [7]
–	–	0.21 µM	0.34 µM	COc1cccc2c1C(=O)c1c(O)c3c(c(O)c1C2=O)C[C@@](O)(C(=O)CO)C[C@@H]3O[C@H]1C[C@H](N)[C@H](O)[C@H](C)O1 [DOXORUBICIN]	1.07 µM	43.2%	Active
> 100 µM	–	41.8 µM	8.3 µM	COc1cc(Nc2cc(F)c(F)cc2C(=O)NCCc2c[nH]c3ccccc23)cc(OC)c1OC	4.38 µM	–	–
1.86 µM	–	0.68 µM	0.92 µM	COc1cc(Nc2cc(F)ccc2C(=O)NCCc2c[nH]c3ccc(F)c(F)c23)cc(OC)c1OC	1.32 µM	–	–
1.65 µM	–	1.09 µM	2.82 µM	COc1cc(Nc2cc(F)ccc2C(=O)NCCc2c[nH]c3c(Cl)cccc23)cc(OC)c1OC	1.57 µM	–	–
8.75 µM	–	2.2 µM	11.3 µM	COc1cc(Nc2cc(F)ccc2C(=O)NCCc2c[nH]c3ccc(Cl)cc23)cc(OC)c1OC	41.3 µM	–	–
> 100 µM	–	> 100 µM	> 100 µM	COc1cc(Nc2ccc(Br)cc2C(=O)NCCc2c[nH]c3ccccc23)cc(OC)c1OC	> 100 µM	–	–
